The numbers were not newly measured in patent US4690936A (priority 1980, dated 1987), which cites them from elsewhere.

The test system of the series is ACE. Particulars: competitive substrate rather than true inhibitor.

Non-standard residues stand in square brackets, D forms with d. Residues, ends and D or L forms follow the SMILES beside them. No end group written: not given here. pGlu = O=C1CC[C@@H](C(=O)O)N1

`C[C@H](NC(=O)[C@H](Cc1c[nH]c2ccccc12)NC(=O)[C@H](CCCCN)NC(=O)[C@@H]1CCC(=O)N1)C(=O)N1CCC[C@H]1C(=O)O` [BPP5a, <GluLysTrpAlaPro] ([pGlu]KWAP-OH): the “type of ACE interaction (lower Km than angiotensin I)” value is listed as “competitive substrates”.
As to RPPGFSPFR [bradykinin], the “type of ACE interaction (lower Km than angiotensin I)” value is “competitive substrates”.
